Results taken from the supplement of paper PMC10307832.

Columns and labels:
Assay in all cases: relative viability (nuclei count vs DMSO), 5 days (fraction); higher = more cells survive
[1] = compound: COC1=CC=C(C=C1)CN2C=CC3=C2C=C(C=C3)C(=O)NO + CC1(C)CCC(c2ccc(Cl)cc2)=C(CN2CCN(c3ccc(C(=O)NS(=O)(=O)c4ccc(N[C@H](CCN5CCOCC5)CSc5ccccc5)c(S(=O)(=O)C(F)(F)F)c4)cc3)CC2)C1 [Navitoclax] (partner 0.5 µM)
Method in brief: (§1)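 Lung cancer cell lines were seeded in 1536-well plates and dosed by pin tool the next day, with either a single drug or a fixed anchor-drug dose combined with five library-drug doses (not always all listed) spaced in √10 steps. Five days later, one step fixed the cells and stained their nuclei (final 0.05% Triton X-100, 1% formaldehyde, 1 ug/ml Hoechst), and nuclei were counted on 4× images. Relative viability is the nuclei count in treated wells divided by the count in vehicle wells, and each value is the median of duplicate plates.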

Veliparib + Phenformin = compound: C[C@]1(c2nc3c(C(N)=O)cccc3[nH]2)CCCN1 [Veliparib] + N=C(N)NC(=N)NCCc1ccccc1 [Phenformin] (partner 250 µM)
Method in brief: as §1

[2] = compound: COC1=CC=C(C=C1)CN2C=CC3=C2C=C(C=C3)C(=O)NO
Method in brief: (§2)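 Nuclei counted with MetaXpress define viability as the ratio of treated to vehicle wells, given as a median across plates. The lung cancer cell lines were in 1536-well plates, pinned with five √10-spaced library-drug doses and imaged at 4× after 5 days and Hoechst staining. Plates passed with control CV below 25% and at least one doubling.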

Veliparib = compound: C[C@]1(c2nc3c(C(N)=O)cccc3[nH]2)CCCN1 [Veliparib]
Method in brief: as §2

Cell Line | relative viability ([1]; first compound 0.08 µM) | relative viability ([1]; first compound 0.253 µM) | relative viability ([1]; first compound 0.8 µM) | relative viability ([1]; first compound 2.53 µM) | relative viability ([1]; first compound 8 µM) | relative viability (Veliparib + Phenformin; first compound 0.06325 µM) | relative viability (Veliparib + Phenformin; first compound 0.2 µM) | relative viability (Veliparib + Phenformin; first compound 0.6325 µM) | relative viability (Veliparib + Phenformin; first compound 2 µM) | relative viability ([2]; 0.08 µM) | relative viability ([2]; 0.253 µM) | relative viability ([2]; 0.8 µM) | relative viability ([2]; 2.53 µM) | relative viability ([2]; 8 µM) | relative viability (Veliparib; 0.02 µM) | relative viability (Veliparib; 0.06325 µM) | relative viability (Veliparib; 0.2 µM) | relative viability (Veliparib; 0.6325 µM) | relative viability (Veliparib; 2 µM) | relative viability (Veliparib + Phenformin; first compound 0.02 µM)
PC-14 | 0.869 | 1.04 | 1.01 | 1.14 | 1.02 | 0.526 | 0.647 | 0.59 | 0.435 | 0.84 | 0.939 | 0.998 | 1.01 | 0.904 | 0.805 | 0.936 | 0.974 | 0.955 | 0.993 | 
NCI-H2087 | 0.974 | 1.03 | 1.13 | 1.08 | 0.856 | 0.467 | 0.428 | 0.435 | 0.486 | 0.913 | 1 | 1.19 | 0.935 | 0.85 | 0.854 | 0.97 | 0.936 | 0.955 | 1.05 | 0.334
NCI-H1650 | 1.07 | 1.32 | 1.17 | 1.18 | 0.925 | 0.473 | 0.519 | 0.404 | 0.34 | 0.787 | 0.87 | 1.01 | 0.946 | 0.689 |  | 0.846 | 1.01 | 0.875 | 0.874 | 
PC-3 [JPC-3] | 0.822 | 0.831 | 0.83 | 0.859 | 0.74 | 0.478 | 0.498 | 0.469 | 0.495 | 1 | 1.03 | 1.11 | 1.08 | 0.968 | 1 | 0.968 | 1.05 | 1.04 | 1.06 | 0.471
LOU-NH91 | 0.419 | 0.677 | 0.739 | 0.725 | 0.576 | 0.457 | 0.694 | 0.639 | 0.682 | 0.717 | 0.95 | 1 | 0.991 | 0.944 | 0.941 | 0.893 | 1.01 | 0.931 | 0.992 | 0.604
NCI-H838 |  | 1.22 | 1.17 | 1.22 | 1.09 | 0.495 | 0.564 | 0.424 | 0.628 |  | 1.01 | 0.964 | 0.98 | 0.871 | 1.05 | 0.909 | 0.974 | 0.9 | 1.02 | 0.576
NCI-H23 | 0.675 | 0.689 | 0.896 | 0.985 | 0.728 | 0.73 | 0.762 | 0.756 | 0.833 | 0.776 | 1.06 | 1.09 | 0.968 | 0.721 | 0.89 | 0.77 | 0.948 | 0.951 | 0.96 | 0.851
NCI-H2023 | 0.94 | 1.07 | 0.946 | 0.994 | 0.98 | 0.417 | 0.39 | 0.384 | 0.411 | 0.908 | 1.02 | 1.02 | 0.949 | 0.87 | 0.853 | 0.939 | 0.919 | 0.85 | 0.928 | 0.39
NCI-H1993 | 0.68 | 1.02 | 1.04 | 1.09 | 0.991 | 0.567 | 0.561 | 0.552 | 0.482 | 0.932 | 0.9 | 1.06 | 0.969 | 0.888 | 0.693 | 0.883 | 0.87 | 1.05 | 0.929 | 0.568
UMC-11 | 0.197 | 0.341 | 0.316 | 0.317 | 0.339 | 0.316 | 0.312 | 0.284 | 0.314 | 0.711 | 0.965 | 1.02 | 0.907 | 0.964 | 1.09 | 0.997 | 0.964 | 0.926 | 0.983 | 0.334
NCI-H1437 | 0.898 | 1.08 | 1.1 | 1.15 | 1.05 | 0.237 | 0.357 | 0.253 | 0.299 | 0.912 | 0.978 | 1.05 | 1.06 | 1.05 | 0.815 | 0.958 | 0.971 | 0.972 | 0.963 | 0.311
LU99A |  | 0.787 | 0.803 | 0.847 | 0.878 | 0.838 | 0.612 | 0.75 | 0.976 |  | 0.932 | 1.11 | 0.916 | 0.932 | 0.984 | 0.902 | 0.771 | 0.863 | 0.994 | 0.928
NCI-H1755 | 0.949 | 1.02 | 1 | 1.03 | 1.02 | 0.629 | 0.631 | 0.518 | 0.608 | 0.869 | 1.03 | 0.965 | 0.993 | 0.973 | 1.02 | 0.957 | 1.02 | 0.913 | 0.963 | 0.637
LXF-289 | 0.446 | 0.947 | 0.954 | 0.935 | 1.03 | 0.52 | 0.533 | 0.499 | 0.539 |  | 1.01 | 1 | 0.992 | 0.992 | 0.996 | 0.992 | 1.03 | 0.941 | 1 | 0.521
NCI-H460 | 1.04 | 1.15 | 1.08 | 1.15 | 1.1 | 0.491 | 0.484 | 0.489 | 0.52 | 0.902 | 1 | 0.994 | 0.992 | 0.968 | 0.93 | 0.952 | 0.967 | 0.931 | 0.964 | 0.361
